PMC12650180, “Discovery of Drug-like Inhibitors of the Human Caf1/CNOT7 poly(A)-Selective Nuclease Using Compound Screening” (Biomolecules, 2025)

Target: human Caf1/CNOT7 (Homo sapiens, UniProt Q9UIV1)
Assay: Fluorescence-based Caf1/CNOT7 nuclease activity assay (Flc-RNA substrate, TAMRA-labelled DNA probe)
Format: biochemical
Settings: mean ± standard deviation; 0.4 μM Caf1/CNOT7, 0.1 μM Flc-RNA substrate, 15 min preincubation, 60 min at 30 °C
Experimental: Compounds (10 mM in DMSO) were stored in a dry, inert environment at −20 °C in an automated sample management system (comPOUND, TTP Labtech Technology, Melbourn, UK). After dispensing aliquots in 96-well plates, compounds were diluted to 0.5 mM in 20% DMSO/water. Aliquots ([…]; […]) were transferred to black U-well 384-well plates (Greiner Bio-One, Kremsmünster, Austria) using a multichannel pipette. Subsequent screening was carried out as described before with modifications for use with a Biomek 3000 liquid handler (Beckman Coulter, Brea, CA, USA). First, enzyme (8 μL containing 1.0 μM Caf1/CNOT7, 50 mM Tris–HCl pH 7.9, 125 mM NaCl, 5 mM MgCl2, 25% glycerol, 2.5 mM β-mercaptoethanol) was added. After mixing, the mixture was left at room temperature for 15 min before the addition of RNA substrate (8 μL; 0.25 μM Flc-RNA substrate in H2O). The composition of the final reaction mixture was: 0.4 μM Caf1/CNOT7, 0.1 μM Flc-RNA substrate, 20 mM Tris–HCl pH 7.9, 50 mM NaCl, 2 mM MgCl2, 10% glycerol, 1 mM β-mercaptoethanol, 5% DMSO, and 100 μM library compound. After incubation at 30 °C for 60 min, 20 μL probe mix (5 μM DNA probe, 1% SDS, 20 mM Tris–HCl pH 8.0, 0.5 mM EDTA) was added. Fluorescence was measured using a BioTek Synergy HT plate reader using the following filters: 485 ± 20 nm (excitation) and 528 ± 20 nm (emission). Hits were identified following data analysis in Microsoft Excel. Screening data was visualised using GraphPad Prism (version 10.4.0).
Reaction conditions and fluorescence measurements were as described above and before. Non-linear regression was carried out using GraphPad Prism 5.0. IC50 values were typically determined using three independent experiments, each containing three replicates.
To discover new inhibitors of the Caf1/CNOT7 nuclease subunit of the Ccr4–Not complex, we screened a sub-set of the Nottingham Managed Chemical Compound Collection, which contains over 83,000 synthetic compounds that are commercially available and were selected based on chemical diversity and drug-like properties. A representative sub-set of 10,880 compounds was selected and screened in duplicate in a 384-well plate format (Figure 1A). The library compounds were screened using a fluorescence-based activity assay that was developed previously. Briefly, purified Caf1/CNOT7 enzyme was pre-incubated with library compounds. This was followed by the addition of a 5′ fluorescein-labelled RNA oligonucleotide containing a stretch of nine adenosine residues at the 3′ end that served as substrate for Caf1/CNOT7. After incubation, the reaction was terminated and a 3′ TAMRA-labelled DNA probe complementary to the substrate was added. […] However, in case Caf1/CNOT7 was inhibited, the substrate remained intact, resulting in annealing of the DNA probe and quenching of fluorescence due to the close vicinity of the fluorescein and TAMRA fluorophores (Figure 1B).
Figure 3 Determination of the IC50 values of small-molecule inhibitors of Caf1/CNOT7. Compounds were preincubated with Caf1/CNOT7 for 15 min at room temperature, followed by the addition of RNA substrate. After incubation (60 min at 30 °C), reactions were stopped by the addition of SDS and a 5-fold molar excess of DNA probe. The mean values for each independent experiment were plotted (Open square, experiment 1; closed circle, experiment 2; diamond, experiment 3).

Chain of human Caf1/CNOT7 (Q9UIV1 whole entry): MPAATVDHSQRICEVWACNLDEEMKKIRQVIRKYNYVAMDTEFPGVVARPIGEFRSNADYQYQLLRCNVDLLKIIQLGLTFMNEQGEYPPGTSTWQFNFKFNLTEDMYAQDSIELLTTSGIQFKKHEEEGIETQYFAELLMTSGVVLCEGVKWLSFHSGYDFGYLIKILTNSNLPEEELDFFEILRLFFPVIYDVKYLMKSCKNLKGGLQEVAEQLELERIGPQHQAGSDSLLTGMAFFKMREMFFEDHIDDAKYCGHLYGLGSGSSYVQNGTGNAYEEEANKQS

Row | Structure (SMILES) | IC50 [µM]
1 | N#Cc1cccc(NC(=O)C(C#N)c2nc3ccccc3s2)c1 (centres unmarked) [Compound 9] | 18.4 ± 5.9
2 | CC(C)CCn1c(SCC(=O)NC(N)=O)nc2cc(Cl)ccc2c1=O [Compound 11] | 15.6 ± 3.2
3 | Cc1cc(NC(=O)NC2(C(F)(F)F)Oc3ccc(Cl)cc3O2)no1 (centres unmarked) [Compound 4] | 16.8 ± 2.1
4 | Cc1ccc2nc(NC(=O)c3cc(Br)c[nH]3)sc2c1 [Compound 1] | 17.8 ± 0.1
5 | O=C(COC(=O)Cc1ccc(-c2ccccc2)cc1)NC(=O)c1cccs1 [Compound 21] | 78.3 ± 9.5
6 | O=C(Nc1cc(Br)cnc1O)c1ccc2ccccc2c1 [Compound 20] | 256 ± 20.4
7 | Cc1ccc(CN(Cc2ccc(C)n2C)C(=O)COc2ccccc2C#N)n1C [Compound 15] | 24.4 ± 9.2
8 | Cc1ccc(NC(=O)c2c[nH]nc2-c2ccc(Cl)cc2)nc1 [Compound 2] | 19.5 ± 3.4
9 | CC(C)c1ccc(-c2nnn(CC(=O)NC(=O)NCc3ccccc3)n2)cc1 [Compound 7] | 17.4 ± 2.7
10 | O=C(Nc1nc(-c2ccc(Cl)s2)cs1)c1ccc(O)nc1 [Compound 19] | 161 ± 13.7
11 | CC(=O)c1c(C)[nH]c(C(=O)Nc2nnc(Cc3ccccc3)s2)c1C [Compound 3] | 20.7 ± 0.9
12 | Cc1sc2nc(COC(=O)Cn3cc(C(F)(F)F)ccc3=O)nc(N)c2c1C [Compound 16] | 122 ± 10.7
13 | CCOC(=O)Cc1ncccc1C(=O)Nc1ccc(Br)c(C(F)(F)F)c1 [Compound 18] | 57.3 ± 10.1
14 | CC(C)NC(=O)Nc1cccc(C(=O)Nc2ccc3oc(C(F)(F)F)nc3c2)c1 [Compound 13] | 14.5 ± 10.7
15 | CC(=O)Nc1cccc(NC2=NN=C(c3cc(C)[nH]c3C)CS2)c1 [Compound 10] | 17.3 ± 1.1
16 | N#Cc1cc(C#N)c(SCc2nnc(-c3cccs3)o2)nc1N [Compound 12] | 21.3 ± 4.6
17 | O=C(Cc1c[nH]c2ccccc12)OCc1ccc(F)cc1Cl [Compound 5] | 17.5 ± 4.2
18 | O=S(=O)(Nc1ccc(SC(F)F)cc1)c1cnn(-c2ccccc2)c1 [Compound 17] | 77.7 ± 0.3
19 | Cc1cccc2sc(NC(=O)CCC(=O)c3ccc(F)cc3)nc12 [Compound 8] | 18.9 ± 4.3
20 | CC(NC(=O)c1ccoc1)C(=O)Nc1cc(-c2cc(Cl)cc(Cl)c2)[nH]n1 (centres unmarked) [Compound 6] | 19.7 ± 2.5
